Results taken from paper PMC3390896, “The Distribution and Physiological Effects of the Myoinhibiting Peptides in the Kissing Bug, Rhodnius Prolixus” (Frontiers in Neuroscience, 2012).
Where two headings read alike, the source gives them in different places. Where a SMILES comes first, the peptide text is derived from it. Bridges are numbered along the chain shown (N, C = ends). Where no end group is shown, it is not given here.

Experiments:
[1] = target: T1, Drosophila melanogaster sex peptide receptor (Drome-SPR) (Drosophila melanogaster, UniProt Q8SWR3); parameters: method as in Poels et al., [2010]; conditions: same aequorin assay; ref Poels et al., [2010]; cited from earlier work
T1 construct: expressed in transfected cells; host or cells: CHO-WTA11 cells (expressing apoaequorin and Gα16)
T1 sequence (Q8SWR3 1-435): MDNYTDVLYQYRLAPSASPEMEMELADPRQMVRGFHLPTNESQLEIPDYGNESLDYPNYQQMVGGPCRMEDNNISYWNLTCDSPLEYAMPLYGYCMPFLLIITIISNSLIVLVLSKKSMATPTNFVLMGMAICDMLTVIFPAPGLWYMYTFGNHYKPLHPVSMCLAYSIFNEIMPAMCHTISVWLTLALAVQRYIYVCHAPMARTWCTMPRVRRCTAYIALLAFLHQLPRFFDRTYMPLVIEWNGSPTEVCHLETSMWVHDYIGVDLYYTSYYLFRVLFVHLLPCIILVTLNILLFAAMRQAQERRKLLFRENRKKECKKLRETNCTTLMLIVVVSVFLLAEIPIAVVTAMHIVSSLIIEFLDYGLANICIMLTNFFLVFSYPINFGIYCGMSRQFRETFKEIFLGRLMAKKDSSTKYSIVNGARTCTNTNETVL
Experimental: The activity profiles of Rhopr-MIP-4 and -7 were tested in the functional aequorin-based Drome-SPR assays (Figure 5).

L. migratoria hindgut = conditions: ref Schoofs et al., [1991]; cited from earlier work
Text: As shown in many insects (and as indicated by their name) MIPs are inhibitory of visceral muscle contraction. Thus, in R. prolixus, MIPs inhibit contractions of the hindgut in a dose-dependent manner. This is true for Rhopr-MIP-4 and for Rhopr-MIP-7. […] The thresholds for these Rhopr-MIPs were approximately the same. These threshold concentrations are lower than the threshold concentrations determined for the suppression of hindgut muscle contractions in L. migrator ...

R. prolixus hindgut = R. prolixus hindgut contraction assay (spontaneous contractions, force transducer); parameters: species or system Rhodnius prolixus; conditions: mean of five to six preparations
Text: Hindguts from female adult R. prolixus were dissected under R. prolixus saline, leaving a small portion of the ventral cuticle attached to the posterior end. The preparation was placed in a shallow trough molded into a Sylgard-coated petri dish. The preparation was secured to the dish by pinning the cuticle using minuten pins. The anterior end of the hindgut was attached to an AE875 miniature force transducer (Aksjeselskapet Mikro-Elektronikk, Norway) using a strand of silk. Muscle activity was monitored on a linear flat-bed chart recorder connected to a force transducer through an amplifier. Isolated hindguts were maintained in 200 μL of saline at room temperature. Working concentrations of Rhopr-MIP-4 or Rhopr-MIP-7 were applied by removing 100 μL of saline and replacing it with the same volume of peptide that yielded final concentrations of 10^−11 to 10^−6 M. The peptides were washed from the preparation using saline between trials. The effects of the peptides on hindgut contractions were monitored over a 5 min time period.
Responses to Rhopr-MIP-4 and Rhopr-MIP-7 were quantified by dividing the frequency of contractions during the second minute after application, by the frequency of contractions during the 1 min interval prior to peptide application.

[2] = target: T1, Drosophila melanogaster sex peptide receptor (Drome-SPR); test: Functional aequorin-based Drome-SPR assay in CHO-WTA11 cells; format: cell-based; conditions: CHO cells coexpressing aequorin, Gα16 and Drosophila SPR; aequorin luminescence; three independent measurements done in triplicate
Experimental: Drome-SPR expression vector (described by Poels et al., [2010]) transfected and mock transfected (negative control) CHO-WTA11 cells (expressing apoaequorin and Gα16) were grown until 90% confluency, detached using PBS with 100 μM EDTA, spun (6 min, 150 g) and resuspended at 5 × 10^6 cells/mL in D-MEM/F-12 without phenol red supplemented with 0.1% BSA. “Coelenterazine h” (Invitrogen) was added to a concentration of 5 μM and the cells were incubated in the dark at room temperature for 3–4 h. After coelenterazine loading, cells were diluted 10-fold and incubated for 30 min. Test compounds were dissolved in 50 μL D-MEM/F-12 supplemented with 0.1% BSA and dispensed in triplicate into the wells of a white 96-well plate. Light emission was recorded (Mithras LB940, Berthold) for 30 s immediately after injection of 50 μL cell suspension into each well. Cells were then lysed by a second injection of 50 μL 0.3% Triton X-100 and monitored during 8 s. Data were collected using MikroWin2000 (Mikrotek Laborsysteme Gmbh).

[3] = frequency in second minute after application divided by frequency in 1 min before, read-out: IC50 for frequency of spontaneous hindgut contractions
[4] = isolated hindgut of female adult R. prolixus, saline, room temperature, read-out: IC50 for amplitude of spontaneous hindgut contractions

Row | Compound | EC50 [1] [nM] | threshold concentration for suppression of hindgut muscle contractions (L. migratoria hindgut) [nM] | IC50 (R. prolixus hindgut; [3]) [nM] | IC50 (R. prolixus hindgut; [4]) [nM] | EC50 [2] [nM]
1 | Drome-SP: Drosophila sex peptide, 36 amino acids with a core W(X8)W and a C-terminal disulfide bridge (WEWPWNRKPTKFPIPSPNPRDKWCRLNLGPAWGGRC; disulfide 24-36 (inferred); UniProt P05623 20-55, looked up) | ~15 | – | – | – | –
2 | AWQDLNAGW-NH2 [Lom-MIP] | – | 1.8 | – | – | –
3 | CC(C)C[C@H](NC(=O)[C@H](CO)NC(=O)[C@H](CC(N)=O)NC(=O)[C@H](Cc1c[nH]c2ccccc12)NC(=O)[C@H](C)N)C(=O)N[C@@H](Cc1c[nH]cn1)C(=O)NCC(=O)NCC(=O)N[C@@H](Cc1c[nH]c2ccccc12)C(N)=O [Rhopr-MIP-7] (H-AWNSLHGGW-NH2) | – | – | ~20 | ~100 | 0.59
4 | CC(C)C[C@H](NC(=O)[C@H](CC(=O)O)NC(=O)[C@H](CO)NC(=O)[C@H](Cc1c[nH]c2ccccc12)NC(=O)[C@H](C)N)C(=O)N[C@@H](CCC(N)=O)C(=O)N[C@@H](CO)C(=O)N[C@@H](CO)C(=O)NCC(=O)N[C@@H](Cc1c[nH]c2ccccc12)C(N)=O [Rhopr-MIP-4] (H-AWSDLQSSGW-NH2) | – | – | ~20 | ~10 | 53
